# Measured values as given in patent publication US12285416B2 (priority 2017, dated 2025).
# Where “and” joins values, the source holds several entries; their conditions need not be identical. Equal values may be shown once. Read-outs that look alike come from different tables or passages of the source.
# Columns and labels:
# [1] = tested on: rat left phrenic nerve-diaphragm preparation
# [2] = tested on: anesthetized rabbit; conditions: in vivo, iv
# [3] = tested on: rat left phrenic nerve-diaphragm preparation; remark: listed apart in the source
# [4] = tested on: rat left phrenic nerve-diaphragm preparation; remark: listed apart in the source
# [5] = tested on: anesthetized/ventilated rat; conditions: in vivo
compound,measurement,setting,value
"COc1cc2c3cc1Oc1cc(ccc1O)C[C@@H]1c4c(cc(OC)c(O)c4Oc4ccc(cc4)C[C@@H]3N(C)CC2)CC[N+]1(C)C [d-tubocurarine, d-tubocurarine chloride hydrate]","Contraction Amplitude, Raw Values",[1],5.2 ± 0.8 g
same,"Max Rate of Change, Raw Values",[1],106 ± 22 g/s
same,"Contraction Amplitude, d-tubocurarine Raw Values",[1]; hydrate,5.2 ± 0.9 g and 4.3 ± 0.5 g and 4.4 ± 1.1 g
same,"Max Rate of Change, d-tubocurarine Raw Values",[1]; hydrate,119 ± 31 g/s and 101 ± 20 g/s and 101 ± 35 g/s
Cisatracurium (Besilate salt),Diaphragmatic Force,[2],5.4 ± 1.0 g
same,Diaphragmatic Force relative change from baseline,[2],−77 ± 6%
same,HR,[2],282 ± 7 bpm
same,HR relative change from baseline,[2],0 ± 1%
same,ITP,[2],15.1 ± 0.6 mmHg
same,ITP relative change from baseline,[2],7 ± 4%
same,LVEDP,[2],7.6 ± 1.1 mmHg
same,LVEDP relative change from baseline,[2],17 ± 8%
same,LVdP/dtmax,[2],2760 ± 246 mmHg/s
same,LVdP/dtmax relative change from baseline,[2],−6 ± 3%
same,MAP,[2],63 ± 6 mmHg
same,MAP relative change from baseline,[2],−3 ± 3%
same,Skeletal Force,[2],1.1 ± 0.5 g
same,Skeletal Force relative change from baseline,[2],−86 ± 5%
same,tau,[2],8.7 ± 0.2 ms
same,tau relative change from baseline,[2],0 ± 1%
same,effect on cardiovascular function,[2]; 0.1 mg/kg,negligible effects in cardiovascular function
same,effect on skeletal and diaphragmatic contractions,[2]; 0.1 mg/kg,reversible inhibition of skeletal and diaphragmatic contractions
CN(C)C(=O)Oc1cccc([N+](C)(C)C)c1 [Neostigmine],"Contraction Amplitude, Neostigmine with d-tubocurarine Raw Values",[1],5.9 ± 0.8 g and 5.2 ± 0.6 g and 4.7 ± 1.2 g
same,"Max Rate of Change, Neostigmine with d-tubocurarine Raw Values",[1],141 ± 30 g/s and 131 ± 21 g/s and 108 ± 39 g/s
same,"Contraction Amplitude, Raw Values",[3],6.3 ± 0.5 g
same,"Contraction Amplitude, Δ from 50% reduction with MMB4",[3],0.6 g and 0.6 ± 0.1 g
same,"Max Rate of Change, Raw Values",[3],153 ± 12 g/s
same,"Max Rate of Change, Δ from 50% reduction with MMB4",[3],20 ± 4 g/s
"CN1CCC[C@H]1c1cccnc1 [Nicotine, (−)-Nicotine detartrate]","Contraction Amplitude, Raw Values",[4],10.8 ± 3.2 g and 9.7 ± 2.6 g
same,"Max Rate of Change, Raw Values",[4],229 ± 97 g/s and 225 ± 102 g/s and 201 ± 94 g/s
same,effect on contraction,[4],depressed contraction
same,effect on contraction and maximal rate of change,[4],positive effect
pralidoxime chloride [2-PAM],effect on diaphragmatic function,[5],depression
CS(=O)(=O)[O-].[Na+] [Sodium Methanesulfonate],"Contraction Amplitude, Raw Values",[4],9.1 ± 0.8 g and 8.9 ± 0.8 g and 8.6 ± 0.8 g and 8.2 ± 0.7 g
same,"Max Rate of Change, Raw Values",[4],211 ± 48 g/s and 214 ± 48 g/s and 210 ± 48 g/s and 197 ± 45 g/s
same,effect on function,[4],minimal effect on function
"C[C@@H]1O[C@H](C[N+](C)(C)C)C[C@H]1O (racemic) [Muscarine, (±)-Muscarine chloride hydrate]",effect on force and maximal rate of change,[4],"minimal or slight reduction of force, and maximal rate of change"
same,"Contraction Amplitude, Raw Values",[4]; hydrate,14.5 ± 1.4 g and 13.5 ± 1.2 g and 13.3 ± 1.2 g and 13.5 ± 1.3 g
same,"Max Rate of Change, Raw Values",[4]; hydrate,341 ± 45 g/s and 314 ± 45 g/s and 321 ± 41 g/s and 329 ± 39 g/s
